Patent US9616037B2, “Aryl-phenyl-sulfonamido-cycloalkyl compounds and their use” (PIMCO 2664 Limited, priority 2008, dated 2017)
≈ marks a conversion by molar mass, not a printed value.

Experiments:
[1] = Thermodynamic aqueous solubility in fasted state simulated intestinal fluid (FaSSIF); assay type: physicochemical; settings: pH 6.5, thermodynamic from solid, equilibrated at 25° C. for 24 hours, HPLC
Protocol: (§1) Initial screening of candidate compounds was performed using in vitro assays to determine potency, metabolic stability and solubility in biologically relevant fluids. Potency was assessed using a viability assay based on the survival of the J774 macrophage cell line. […] Like osteoclasts, J774 macrophages are dependent on continued NFκB activation for survival, thereby providing a valuable screen for compounds with anti-inflammatory activity. Metabolic stability was measured by determining the rate of disappearance of compound in the presence of human liver microsomal preparations, as quantified by LC-MS/MS. Solubility was measured by equilibration of the compound in fasted state simulated intestinal fluid (FaSSIF) and quantified by HPLC.
Thermodynamic aqueous solubility was measured by equilibration of a number of APSAC compounds, in the solid state, with fasted state simulated intestinal fluid (FaSSIF) and quantified by HPLC. Measurement of solubility in FaSSIF provides a valuable model for the prediction of drug dissolution following oral administration.
The pH was adjusted to 6.5 using 1 M NaOH solution.
0.6 mL of a solution containing 100 mg/mL lecithin in methylene chloride was added. The methylene chloride was eliminated under vacuum at about 40° C. The vacuum was drawn for 15 minutes at 250 mbar, followed by 15 minutes at 100 mbar. […] After cooling to room temperature, the solution was then adjusted to 100 mL with blank FaSSIF.
The suspension was equilibrated at 25° C. for 24 hours, and then the pH was measured. The suspension was then filtered through a glass fibre C filter into a 96-well plate. The filtrate was then diluted by a factor of 100. Quantification was made by HPLC with reference to a standard solution of compound at approximately 0.1 mg/mL in DMSO. Different volumes of the standard, diluted and undiluted sample solutions were injected. […] Analysis was performed on an Agilent HP1100 series system equipped with a diode array detector and using ChemStation software vB.02.01-SR1.

[2] = Human liver microsomal stability assay; assay type: in vitro ADME; settings: both sexes, pH 7.4; pooled human liver microsomes 0.5 mg/mL, 3 μM compound, NADPH, 45 minute incubation
Protocol: as §1
Metabolic stability of APSAC derivatives was measured by determination of the rate of compound disappearance when incubated in the presence of human liver microsomes. Liver microsomes are prepared from the endoplasmic reticulum of hepatocytes and are the primary source of the most important enzymes (cytochrome P450) involved in drug metabolism. Study of drug stability in the presence of liver microsomes is accepted as a valuable model permitting rapid prediction of in vivo drug stability.
Human liver microsomes were obtained from a commercial source. Test compounds (3 μM) were incubated with pooled liver microsomes (male and female). Samples were incubated for a 45 minute period and removed at 5 time points and test compounds were analysed by LC-MS/MS.
The final incubation volume was 25 μL. A control incubation was included for each compound tested, where 0.1 M phosphate buffer pH 7.4 was added instead of NADPH. The control compounds testosterone and 7-hydroxycoumarin were included in each experiment and all incubations were performed singularly for each compound.
Each compound was incubated for 0, 5, 15, 30, and 45 minutes. The control (minus NADPH) was incubated for 45 minutes only. […] The incubation plates were centrifuged at 2500 rpm for 20 minutes at 4° C. to precipitate the protein.
Following protein precipitation, the sample supernatants were combined in cassettes of up to 4 compounds and analysed using standard LC-MS/MS conditions.
From a plot of the natural logarithm of the peak area ratio (i.e., the ratio of compound peak area:internal standard peak area) against time, the gradient of the line was determined. Subsequently, half-life and intrinsic clearance were calculated using the equations below: Eliminated rate constant (k)=(−gradient). […] Pharmacokinetics Studies

J774 macrophages = experiment: Alamar Blue macrophage J774 viability assay; assay type: cell-based; settings: Mus musculus; J774 cells, 72 hours with compound, Alamar Blue readout; read-out: IC50
Protocol: Initial screening of candidate compounds was performed using in vitro assays to determine potency, metabolic stability and solubility in biologically relevant fluids. Potency was assessed using a viability assay based on the survival of the J774 macrophage cell line. Macrophages are closely related to osteoclasts and have been used previously as a model system for osteoclast survival (see, e.g., Luckman et al., 1998). Like osteoclasts, J774 macrophages are dependent on continued NFκB activation for survival, thereby providing a valuable screen for compounds with anti-inflammatory activity. Metabolic stability was measured by determining the rate of disappearance of compound in the presence of human liver microsomal preparations, as quantified by LC-MS/MS. Solubility was measured by equilibration of the compound in fasted state simulated intestinal fluid (FaSSIF) and quantified by HPLC.
In vitro potency as anti-inflammatory agents was determined for a number of APSAC compounds by incubation with J774 macrophages and subsequent determination of cell viability.
J774 cells were plated at 10^4 cells per well in 100 μL αMEM (α Modified Eagle Medium) in 96-well plates and grown overnight. The next day, test compounds were added to the cultures, and cultures were continued for another 72 hours. At the end of the culture period, cell survival was determined using an Alamar Blue assay as previously described (see, e.g., Nociari et al., 1998).
Alamar Blue is an oxidation-reduction sensitive indicator. The dye itself is in the oxidised state, which is blue and non-fluorescent. The dye can accept electrons from reducing species, such as NADPH and FADH, to form a reduced dye species, which is red and fluorescent. Thus the transformation from oxidised form to reduced form can be measured by fluorimetric or colourimetric means. For fluorescence measurements, 530-560 nm excitation and 590 nm emission wavelengths are typically used. For colourimetric measurements, absorbance at 570 nm (reduced form) and 600 nm (oxidised form) is typically measured. A simple calculation is performed to determine the relative quantities of the two species.
A high ratio of the reducing species, NADPH and FADH, to the corresponding oxidised species, NADP and FAD, is an indicator that cells are proliferating and viable. A low ratio indicates cells that are quiescent or non-viable.
Briefly, Alamar Blue (Biosource International) was added undiluted to the each well (1:10 v/v, 10 μL). The plate was incubated at 37° C. for 3-4 hours and the fluorescence was measured at 590 nm, with a 25 nm bandwidth. A high reading indicated cells with normal viability, and a low reading indicated cells that have been damaged and are no longer proliferating normally. The controls gave a high fluorescence reading, indicating a high number of live, healthy cells. A potent test compound gave a low fluorescence reading. The average results for each test compound (n=5) were expressed as a percent (%) of the average control value.
Addition of Compounds. All of the compounds studied were made up as 100 mM solutions in DMSO. These stock solutions were then diluted 1000-10000× in culture medium (αMEM). From these 100 μM or 10 μM solutions, convenient quantities (3-33 μL) were added directly to the wells so as to give the desired final compound concentration.

SMILES | solubility at 24 h [1] [µg/mL] | half-life at 3 µM [2] [min] | IC50 (J774 macrophages) [nM]
O=S(=O)(N[C@H]1CC[C@@H](CO)C1)c1ccc(-c2ccc(F)cc2F)cc1 [ABD773, 2′,4′-Difluoro-N-((1 S,3R)-3-(hydroxymethyl)cyclopentyl)biphenyl-4-sulfonamide] | 890 (≈ 2420 µM) | 54 | 130
O=S(=O)(N[C@H]1CC[C@@H](CO)CC1)c1ccc(-c2ccc(F)cc2F)cc1 [ABD781, 2′,4′-Difluoro-N-(cis-4-(hydroxymethyl)cyclohexyl)biphenyl-4-sulfonamide] | 590 (≈ 1550 µM) | 41 | 300
